Measured values taken from paper PMC12097015, “Development of MDM2‐Targeting PROTAC for Advancing Bone Regeneration” (Advanced Science, 2025).

How the values were obtained:
[1] = tested on: osteocalcin (OCN); assay: Immunostaining of osteogenic markers in hBMSCs; assay type: cell-based, human; settings: 10 µM
[2] = tested on: p53; assay: p53 level by western blot in hBMSCs; assay type: cell-based, human; settings: 0.1 µM to 10 µM
Method: Human Bone Marrow‐derived Mesenchymal Stem Cells (hBMSCs) were provided by Professor Lee's laboratory, and cells from passages four to nine were used for all experiments. hBMSCs were cultured in alpha‐minimum essential medium (Welgene, LM008‐01) supplemented with 10% Fetal Bovine Serum (FBS) (Gibco, US origin, 16000–044) and 1% penicillin/streptomycin (Gibco, 15140‐122).
(§1) After discarding the medium and washing the cells twice with cold dPBS, the cells were collected using a scraper and lysed using RIPA buffer (GenDEPOT, R4200‐010) containing protease and phosphatase inhibitors (GenDEPOT, P3200‐001). The collected samples were centrifuged at 13 200 rpm for 10 min at 4 °C, and the supernatant containing total protein was collected. SDS‐PAGE gels (10–12%) were prepared, and protein samples were mixed with 5X loading buffer containing reducing agent (Biosesang, S2002) and heated at 98 °C for 5 min. Equal amounts of protein samples were loaded onto a gel, separated by electrophoresis, and transferred onto nitrocellulose membranes using a Dry Transfer Stacks Kit (Invitrogen, IB23001). The membrane was blocked with 5% nonfat milk in 1X TBST for 1 h at room temperature to prevent nonspecific binding. The membranes were incubated with primary antibodies specific to the target proteins overnight at 4 °C with gentle shaking. […]

[3] = tested on: hBMSCs; assay: Calcium deposit staining (X-Rhod-1) in hBMSCs; assay type: cell-based, human; settings: X‐Rhod‐1, p < 0.05
Method: hBMSCs were differentiated in the presence of the 10 mM β‐glycerophosphate (Sigma‐Aldrich, G9422) and 50 µM ascorbic acid (Sigma‐Aldrich, A4403) in culture medium for 10 d. Subsequently, the cells were fixed with 4% PFA for 30 min, followed by two washes with Mg^2+‐and Ca^2+‐free dPBS (Welgene, LB‐204). To stain for calcium, X‐Rhod‐1 (Invitrogen, X14210) dye was diluted in Mg^2+‐and Ca^2+‐free dPBS at a concentration of 1 µM and incubated at room temperature in the dark for 1 h. The cells were then washed five times with Mg^2+‐and Ca^2+‐free dPBS at 10 min intervals. The samples were observed under a Cytation5 microscope (Agilent Technologies) at a wavelength of 595 nm.

[4] = tested on: hBMSCs; assay: Bulk RNA-seq of cultured hBMSCs; assay type: cell-based, human; settings: CL144 versus Nutlin‐3
Text: ‐Sample Preparation: In accordance with the manufacturer's instructions, total RNA was extracted using Trizol from hBMSCs treated with Nutlin‐3 or CL144 as well as from control cells. Utilizing an Agilent Bioanalyzer RNA ScreenTape kit (Agilent, 5067–5576), the integrity of the RNA (RIN) was verified. All samples with RIN value > 8.0 were used for sequencing.
‐Library Construction: RNA‐seq libraries were constructed according to the manufacturer's instructions for the SRSLY Library Prep kit, which were provided by Claretbio (CBS‐K155B‐24). […] This work fragmented and enriched the mRNA using oligo (dT). After ligating the cDNA fragments to adapters, PCR amplification was performed.
‐Sequencing: The libraries were performed to sequencing on the Nextseq2000 (Illumina) platform, utilizing the SRSLY RNA NanoPlus kit to generate 100 bp paired‐end reads.
‐Data Analysis: FastQC was used to trim the adaptor sequences and remove low‐quality reads from the raw sequencing data (FASTQ files). After that, Hisat2 v2.2.1 was used to align these clean reads with the Human Genome Reference GRCh38. DESeq2 was used for differential expression analysis, while g: Profiler was used for GO enrichment analysis.

[5] = tested on: hBMSCs; assay: Alizarin Red S (ARS) staining of hBMSCs under osteogenic differentiation; assay type: cell-based, human; settings: osteogenic differentiation conditions
Method: To induce osteogenic differentiation, the cells were seeded in confluent plates and cultured in osteogenic induction medium the following day. The differentiation medium was prepared by adding 10 mM β‐glycerophosphate (Sigma‐Aldrich, G9422), 50 µM ascorbic acid (Sigma‐Aldrich, A4403), and 0.1 µM dexamethasone (Sigma‐Aldrich, D4902) to the culture medium. The cells were treated with MDM2 inhibitors, Nutlin‐3 (Sigma‐Aldrich, N6787) or CL144 in an osteoinductive medium and incubated for 10–14 days to induce osteogenic differentiation. The differentiation medium was changed every 2–3 days (The list of MDM2 inhibitors used is shown in Figure 1A and presented in Table S1, Supporting Information).
Following osteogenic differentiation for the indicated number of days, the cells were fixed in 70% ethanol for 3 min at room temperature or in 4% PFA (Tech & Innovation, BPP‐9004) for 30 min at room temperature, washed with distilled water, and stained with 2% Alizarin Red S (Sigma‐Aldrich; pH 4.2, A5533) for 30 min.

[6] = molecular target: T1, IKZF1 (Homo sapiens, UniProt Q13422); assay: Neo-substrate off-target immunoblot in hBMSCs; assay type: cell-based; settings: 10 µM, conditions with MDM2 degradation ≈70%
T1 construct: endogenous in cells; host or cells: hBMSCs
T1 sequence (Q13422 whole entry): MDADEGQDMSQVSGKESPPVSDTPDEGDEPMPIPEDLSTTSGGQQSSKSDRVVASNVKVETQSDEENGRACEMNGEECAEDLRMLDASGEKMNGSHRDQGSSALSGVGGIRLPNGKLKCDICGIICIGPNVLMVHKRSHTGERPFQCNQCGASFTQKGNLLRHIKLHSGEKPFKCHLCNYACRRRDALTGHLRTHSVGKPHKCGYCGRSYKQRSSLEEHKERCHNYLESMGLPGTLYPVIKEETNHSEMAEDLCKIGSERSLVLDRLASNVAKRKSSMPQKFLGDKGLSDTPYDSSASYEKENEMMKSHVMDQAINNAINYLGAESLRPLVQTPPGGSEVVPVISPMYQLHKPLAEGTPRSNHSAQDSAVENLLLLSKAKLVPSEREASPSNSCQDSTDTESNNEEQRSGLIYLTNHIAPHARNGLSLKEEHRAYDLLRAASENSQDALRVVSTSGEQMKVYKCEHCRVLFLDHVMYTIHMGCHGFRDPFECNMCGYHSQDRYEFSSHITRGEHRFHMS
Method: as §1, with “shaking. The next day, the membrane was washed three times with TBST at 10 min intervals to remove unbound primary antibodies. The membranes were incubated with secondary antibodies (anti‐rabbit and anti‐mouse) conjugated to horseradish peroxidase (HRP) for 1 h at room temperature. The membrane was washed three times with 1X TBST at 10 min intervals to remove unbound secondary antibodies.” for “shaking.”

[7] = tested on: rabbit calvaria; assay: Rabbit calvarial vertical onlay graft model; assay type: in vivo, New Zealand white rabbits; settings: eight weeks, CL144 10 μΜ or rhBMP‐2 3.85 μΜ soaked on BCP carrier
Method: Total six male, New Zealand white rabbits, weighing ≈2.8–3.2 kg were used for the rabbit calvaria onlay graft model. Rabbits were kept in separate cages under standard laboratory conditions with free access to food and water and provided standard meals according to the ARRIVE guidelines. The animals were sacrificed eight weeks postoperatively (n = 6), and each rabbit was divided into three different groups. […] General anesthesia was induced by injecting 65 mg kg^−1 ketamine (Ketalar, Yuhan, Korea) and xylazine (Rompun, Bayer, Korea). A full‐thickness flap was raised under local anesthesia with 2% lidocaine and 1:100 000 epinephrine to expose the calvarial bone. Slits around the sagittal suture were prepared using a trephine bur (7 mm in diameter, 1 mm in depth), and then four perforations of the external cortical bone plate were made. […]
‐Radiographic analysis: A single‐blinded examiner conducted all the measurements. […] The volume of the newly formed bone within the cylinders was measured.
The embedding paraffin blocks were then sectioned into 4 µm thick slices and stained with Masson trichrome. […] Within the cylinder, the total augmented area, area and proportion of newly formed bone, and residual graft materials were measured as previously described.^[ [34] ^]

COc1ccc(C2=N[C@H](c3ccc(Cl)cc3)[C@H](c3ccc(Cl)cc3)N2C(=O)N2CCN(CC(=O)NCCCCCCCCOc3cccc4c3C(=O)N(C3CCC(=O)NC3=O)C4=O)C(=O)C2)c(OC(C)C)c1 (stereo in doubt) [CL144]
osteocalcin (OCN) protein intensity compared to the control group [1]: no statistically significant difference
p53 levels [2]: elevated p53 levels in a dose‐dependent manner
calcium deposits compared to the control group [3]: significantly increased
COL8A2 expression (log2FC) [4]: 6.02
COL11A1 expression (log2FC) [4]: 6.23
biomineralization / osteogenic potency (ARS staining) [5]: significantly enhanced biomineralization
IKZF1 reduction [6]: about 35%
amount of new bone (histomorphometric analysis) [7]: 25.58 ± 11.70%
